Assay results: patent US20240132431A1, “METHOD FOR ALKYLATING ACIDIC FUNCTIONAL GROUP” (Chugai Seiyaku Kabushiki Kaisha, priority 2021, published 2024)

Molecular target: T1, Bcl-2 protein (Recombinant Human Bcl-2 Protein) (Homo sapiens, UniProt P10415)
T1 construct: purchased Novus NBP2-34889
Test: Binding evaluation of mixture library compounds to Bcl-2 using AS-MS (affinity selection mass spectrometry)
Details: AS-MS, mixture of 1200 compounds, Bcl-2, ASMS Ratio(%)=(A−C)/B×100; for ASMS ratio (%) n = 1: replicate n = 1; for ASMS ratio (%) n = 2: replicate n = 2
Description: For one well of MICROPLATE, 96-well, PP, V-BOTTOM (Greiner bio-one, 651201), DMSO solutions of 12 mixtures (prepared to approximately 0.58 mM based on calculations from the average molecular weight of each mixture), in each of which 100 compounds are mixed, were each dispensed, and dispensed into a total of 12 wells, where the 12 mixtures are mixAI-B4J-01, mixAI-B1M-01, mixAI-B1K-01, mixAI-B10-01, mixAI-B1A-01, mixAI-B3A-01, mixAI-B21-01, mixAI-B2L-01, mixAI-B2N-01, mixAI-B2A-01, mixAI-B2Q-01, and mixAI-B2R-01 listed in [Table AI-03-B4J-01], [Table AI-03-B1M-01], [Table AI-03-B1K-01], [Table AI-03-B10-01], [Table AI-03-B1A-01], [Table AI-03-B3A-01], [Table AI-03-B2I-01], [Table AI-03-B2L-01], [Table AI-03-B2N-01], [Table AI-03-B2A-01], [Table AI-03-B2Q-01], and [AI-03-B2R-01] shown in Example 6. Using the LABCYTE ECHO® 555 Acoustic Dispensing System (BECKMAN COULTER), 70 nL was collected from each of the 12 wells into one arbitrary well to prepare a sample solution with 1200 compounds in the mixed state (the presence of 1152 compounds had already been identified when prepared in Example 6-5-3). (In the present specification, the mixture collected in this one well is referred to as one library.) Furthermore, a Bcl-2 protein (Novus, NBP2-34889, Recombinant Human Bcl-2 Protein, Lot E60145051) (19.2 μL) that had been prepared in advance to be 20.9 μM using a Tris-HCl buffer (25 mM Tris-HCl pH 7.4, 150 mM NaCl, 0.025% Tween-20, 1 mM DTT) was added to the well in which 1200 compounds (the presence of 1152 compounds had already been identified when prepared in Example 6-5-3) were dispensed (final compound concentration […], final Bcl-2 concentration 20 μM), and the mixture was incubated in the dark at 23° C. for 1 hour. Next, using the 96-well MacroSpin column, P-2 Material (Harvard, 74-5655) that had been swollen, conditioning of the 96-well MacroSpin column was performed three times by centrifugation with 200 μL of an assay buffer (25 mM Tris-HCl pH 7.4, 150 mM NaCl, 0.025% Tween-20, 1 mM DTT), 2000 XG, 4° C., 2 min. Subsequently, 20 μL of the sample after incubation was added to the 96-well MacroSpin column, P-2 Material, that had been conditioned, and SEC treatment was performed by centrifugation at 2000×G for 2 minutes. To the liquid passed from the SEC, 32 μL of a 1:1 mixed solution of acetonitrile and methanol (LC/MS grade, Fujifilm Wako Pure Chemical Corporation) was added, the mixture was centrifuged at 1800×G, 4° C., 5 min, and the supernatant was used as analysis sample ASMS (A), while a sample that had been prepared by the same operations at 1200 compounds/well and to which only the Tris-HCl buffer had been added without the Bcl-2 protein was incubated under the same conditions, no 96-well MacroSpin column treatment was performed, the same organic solvent was added, and the supernatant solution obtained by centrifugation was used as STD (B). Next, a sample that had been prepared by the same operations at 1200 compounds/well and to which only the Tris-HCl buffer had been added without the Bcl-2 protein was incubated under the same conditions, the same 96-well MacroSpin column treatment was performed, the same organic solvent was added, and the supernatant solution obtained by centrifugation was used as BK (C), and measured by reversed phase LC/MS.
Then, analysis of the 1200 compounds was carried out for samples A, B, and C with TraceFinder 5.1 (Thermo Fisher Scientific) and CHANCE Software (in-house), and the ASMS Ratio (%) was calculated according to the following calculation formula.
Calculation formula: ASMS Ratio(%)=(A−C)/B×100

T1 sequence (P10415 whole entry): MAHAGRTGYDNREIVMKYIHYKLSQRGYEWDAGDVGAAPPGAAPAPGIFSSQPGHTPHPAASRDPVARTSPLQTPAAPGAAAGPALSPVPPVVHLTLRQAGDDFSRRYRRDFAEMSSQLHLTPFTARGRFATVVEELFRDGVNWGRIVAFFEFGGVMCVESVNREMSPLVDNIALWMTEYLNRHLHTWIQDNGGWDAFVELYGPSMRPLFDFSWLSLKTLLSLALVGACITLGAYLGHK

Compound: CCOc1cncc(-c2cc(C(=O)N3CCN(c4ccc(C(=O)NCC56CC7CC(CC(C7)C5)C6)nn4)CC3)cc(C(C)(C)C)c2)c1 [B1A016-01, N-(1-Adamantylmethyl)-6-[4-[3-tert-butyl-5-(5-ethoxypyridin-3-yl)benzoyl]piperazin-1-yl]pyridazine-3-carboxamide]
- ASMS ratio (%) n = 1: 12.1%
- ASMS ratio (%) n = 2: −4.6%

Compound: CCOc1cccc(-c2cc(C(=O)N3CCN(c4ccc(C(=O)NCC56CC7CC(CC(C7)C5)C6)nn4)CC3)cc(C(F)(F)F)c2)c1 [B1A017-01, N-(1-Adamantylmethyl)-6-[4-[3-(3-ethoxyphenyl)-5-(trifluoromethyl)benzoyl]piperazin-1-yl]pyridazine-3-carboxamide]
- ASMS ratio (%) n = 1: 5.4%
- ASMS ratio (%) n = 2: 5.4%

Compound: CCOc1cncc(-c2cc(C(=O)N3CCN(c4ccc(C(=O)NCC56CC7CC(CC(C7)C5)C6)nn4)CC3)cc(C(F)(F)F)c2)c1 [B1A018-01, N-(1-Adamantylmethyl)-6-[4-[3-(5-ethoxypyridin-3-yl)-5-(trifluoromethyl)benzoyl]piperazin-1-yl]pyridazine-3-carboxamide]
- ASMS ratio (%) n = 1: −6.5%
- ASMS ratio (%) n = 2: 9.9%

Compound: CCOc1cccc(C#Cc2cc(C(=O)N3CCN(c4ccc(C(=O)NCC56CC7CC(CC(C7)C5)C6)nn4)CC3)cc(C(F)(F)F)c2)c1 [B1A019-01, N-(1-Adamantylmethyl)-6-[4-[3-[2-(3-ethoxyphenyl)ethynyl]-5-(trifluoromethyl)benzoyl]piperazin-1-yl]pyridazine-3-carboxamide]
- ASMS ratio (%) n = 1: −3.9%
- ASMS ratio (%) n = 2: −7.5%

Compound: CCOc1cncc(C#Cc2cc(C(=O)N3CCN(c4ccc(C(=O)NCC56CC7CC(CC(C7)C5)C6)nn4)CC3)cc(C(F)(F)F)c2)c1 [B1A020-01, N-(1-Adamantylmethyl)-6-[4-[3-[2-(5-ethoxypyridin-3-yl)ethynyl]-5-(trifluoromethyl)benzoyl]piperazin-1-yl]pyridazine-3-carboxamide]
- ASMS ratio (%) n = 1: −4.3%
- ASMS ratio (%) n = 2: −10.5%

Compound: CCOc1cccc(-c2cnn(-c3cc(C(=O)N4CCN(c5ccc(C(=O)NCC67CC8CC(CC(C8)C6)C7)nn5)CC4)cc(C(F)(F)F)c3)c2)c1 [B1A021-01, N-(1-Adamantylmethyl)-6-[4-[3-[4-(3-ethoxyphenyl)pyrazol-1-yl]-5-(trifluoromethyl)benzoyl]piperazin-1-yl]pyridazine-3-carboxamide]
- ASMS ratio (%) n = 1: −1.3%
- ASMS ratio (%) n = 2: −3.7%

Compound: CCOc1cncc(-c2cnn(-c3cc(C(=O)N4CCN(c5ccc(C(=O)NCC67CC8CC(CC(C8)C6)C7)nn5)CC4)cc(C(F)(F)F)c3)c2)c1 [B1A022-01, N-(1-Adamantylmethyl)-6-[4-[3-[4-(5-ethoxypyridin-3-yl)pyrazol-1-yl]-5-(trifluoromethyl)benzoyl]piperazin-1-yl]pyridazine-3-carboxamide]
- ASMS ratio (%) n = 1: 8.0%
- ASMS ratio (%) n = 2: 7.7%

Compound: CCOc1cccc(-c2csc(C(=O)N3CCN(c4ccc(C(=O)NCC56CC7CC(CC(C7)C5)C6)cc4)CC3)c2)c1 [B1A023-01, N-(1-Adamantylmethyl)-4-[4-[4-(3-ethoxyphenyl)thiophene-2-carbonyl]piperazin-1-yl]benzamide]
- ASMS ratio (%) n = 1: 4.0%
- ASMS ratio (%) n = 2: 0.8%

Compound: CCOc1cncc(-c2csc(C(=O)N3CCN(c4ccc(C(=O)NCC56CC7CC(CC(C7)C5)C6)cc4)CC3)c2)c1 [B1A024-01, N-(1-Adamantylmethyl)-4-[4-[4-(5-ethoxypyridin-3-yl)thiophene-2-carbonyl]piperazin-1-yl]benzamide]
- ASMS ratio (%) n = 1: 4.1%
- ASMS ratio (%) n = 2: 1.2%

Compound: CCOc1cccc(-c2ccc(C(=O)N3CCN(c4ccc(C(=O)NCC56CC7CC(CC(C7)C5)C6)cc4)CC3)cc2C)c1 [B1A025-01, N-(1-Adamantylmethyl)-4-[4-[4-(3-ethoxyphenyl)-3-methylbenzoyl]piperazin-1-yl]benzamide]
- ASMS ratio (%) n = 1: 7.4%
- ASMS ratio (%) n = 2: −16.1%

Compound: CCOc1cncc(-c2ccc(C(=O)N3CCN(c4ccc(C(=O)NCC56CC7CC(CC(C7)C5)C6)cc4)CC3)cc2C)c1 [B1A026-01, N-(1-Adamantylmethyl)-4-[4-[4-(5-ethoxypyridin-3-yl)-3-methylbenzoyl]piperazin-1-yl]benzamide]
- ASMS ratio (%) n = 1: 3.0%
- ASMS ratio (%) n = 2: −2.9%

Compound: CCOc1cccc(-c2ccc(C(=O)N3CCN(c4ccc(C(=O)NCC56CC7CC(CC(C7)C5)C6)cc4)CC3)cc2F)c1 [B1A027-01, N-(1-Adamantylmethyl)-4-[4-[4-(3-ethoxyphenyl)-3-fluorobenzoyl]piperazin-1-yl]benzamide]
- ASMS ratio (%) n = 1: 6.7%
- ASMS ratio (%) n = 2: −7.8%

Compound: CCOc1cncc(-c2ccc(C(=O)N3CCN(c4ccc(C(=O)NCC56CC7CC(CC(C7)C5)C6)cc4)CC3)cc2F)c1 [B1A028-01, N-(1-Adamantylmethyl)-4-[4-[4-(5-ethoxypyridin-3-yl)-3-fluorobenzoyl]piperazin-1-yl]benzamide]
- ASMS ratio (%) n = 1: −1.6%
- ASMS ratio (%) n = 2: −4.7%

Compound: CCOc1cccc(C#Cc2ccccc2C(=O)N2CCN(c3ccc(C(=O)NCC45CC6CC(CC(C6)C4)C5)cc3)CC2)c1 [B1A029-01, N-(1-Adamantylmethyl)-4-[4-[2-[2-(3-ethoxyphenyl)ethynyl]benzoyl]piperazin-1-yl]benzamide]
- ASMS ratio (%) n = 1: −22.3%
- ASMS ratio (%) n = 2: −13.0%

Compound: CCOc1cncc(C#Cc2ccccc2C(=O)N2CCN(c3ccc(C(=O)NCC45CC6CC(CC(C6)C4)C5)cc3)CC2)c1 [B1A030-01, N-(1-Adamantylmethyl)-4-[4-[2-[2-(5-ethoxypyridin-3-yl)ethynyl]benzoyl]piperazin-1-yl]benzamide]
- ASMS ratio (%) n = 1: 6.9%
- ASMS ratio (%) n = 2: −1.8%

Compound: CCOc1cccc(C#Cc2cncc(C(=O)N3CCN(c4ccc(C(=O)NCC56CC7CC(CC(C7)C5)C6)cc4)CC3)c2)c1 [B1A031-01, N-(1-Adamantylmethyl)-4-[4-[5-[2-(3-ethoxyphenyl)ethynyl]pyridine-3-carbonyl]piperazin-1-yl]benzamide]
- ASMS ratio (%) n = 1: 6.9%
- ASMS ratio (%) n = 2: −1.8%

Compound: CCOc1cncc(C#Cc2cncc(C(=O)N3CCN(c4ccc(C(=O)NCC56CC7CC(CC(C7)C5)C6)cc4)CC3)c2)c1 [B1A032-01, N-(1-Adamantylmethyl)-4-[4-[5-[2-(5-ethoxypyridin-3-yl)ethynyl]pyridine-3-carbonyl]piperazin-1-yl]benzamide]
- ASMS ratio (%) n = 1: 0.0%
- ASMS ratio (%) n = 2: −9.1%

Compound: CCOc1cccc(-c2ccccc2CCC(=O)N2CCN(c3ccc(C(=O)NCC45CC6CC(CC(C6)C4)C5)cc3)CC2)c1 [B1A033-01, N-(1-Adamantylmethyl)-4-[4-[3-[2-(3-ethoxyphenyl)phenyl]propanoyl]piperazin-1-yl]benzamide]
- ASMS ratio (%) n = 1: 3.3%
- ASMS ratio (%) n = 2: −13.3%

Compound: CCOc1cncc(-c2ccccc2CCC(=O)N2CCN(c3ccc(C(=O)NCC45CC6CC(CC(C6)C4)C5)cc3)CC2)c1 [B1A034-01, N-(1-Adamantylmethyl)-4-[4-[3-[2-(5-ethoxypyridin-3-yl)phenyl]propanoyl]piperazin-1-yl]benzamide]
- ASMS ratio (%) n = 1: 5.2%
- ASMS ratio (%) n = 2: −3.2%
